Numbers after ± are expanded uncertainties.
Tests used:
[1] = 298.15 K; 101.33 kPa; Liquid
[2] = xn = mol fraction of the nth substance listed; settings: 298.15 K, 101 kPa, Liquid, Vibrating tube method

With `CCCO` [propan-1-ol] the mass density [1] was 800.61 ± 0.23 kg/m3.
In the case of `C=COCCC` [propyl vinyl ether], the mass density [1] is reported as 762.69 ± 0.26 kg/m3.
Compound `C=COCCC` [propyl vinyl ether] + Cc1ccccc1 has a mass density ([2]; x1 = 0.0494) of 857.3 ± 0.22 kg/m3, a mass density ([2]; x1 = 0.1002) of 852.46 ± 0.22 kg/m3 and a mass density ([2]; x1 = 0.1995) of 843.05 ± 0.22 kg/m3. It also gave a mass density ([2]; x1 = 0.2999) of 833.4 ± 0.22 kg/m3, a mass density ([2]; x1 = 0.3993) of 823.66 ± 0.22 kg/m3 and a mass density ([2]; x1 = 0.5002) of 813.73 ± 0.22 kg/m3. It also gave a mass density ([2]; x1 = 0.5999) of 803.77 ± 0.22 kg/m3, a mass density ([2]; x1 = 0.6998) of 793.65 ± 0.22 kg/m3 and a mass density ([2]; x1 = 0.7999) of 783.69 ± 0.22 kg/m3. The mass density ([2]; x1 = 0.8993) was 773.56 ± 0.22 kg/m3 and the mass density ([2]; x1 = 0.95) was 768.31 ± 0.22 kg/m3.
Compound `Cc1ccccc1` [toluene] has a mass density [1] of 862.23 ± 0.18 kg/m3.

From the NIST ThermoML archive (doi:10.1021/je800972b)
